Laboratory results as given in patent US20100280098A1, “RECEPTOR TARGETED OLIGONUCLEOTIDES” (priority 2007, published 2010).
“Also recorded” adds a separate entry of the source.

What was measured:
Micrococcal nuclease = Micrococcal nuclease (Staphylococcus aureus, UniProt P00644); assay: Nuclease stability by polyacrylamide gel; type: in vitro ADME; settings: 0-12 h, 37° C.
Protocol: The reactions were then stopped by the addition of EDTA (50 mM), and the fluorescent samples were analyzed on 10% polyacrylamide gels and examined under long-wavelength ultraviolet illumination to detect possible nucleolytic cleavage of the Tamra-labeled oligonucleotides.

A375SM-Luc705-B cells [1] = assay: Subcellular distribution and co-localization by confocal fluorescence microscopy (peptide conjugate); type: cell-based; settings: living cells; 200 nM, complex 100 nM
Source text: (§1) Cell Uptake, Confocal Fluorescence Microscopy, and Flow Cytometry: Total cellular uptake of Tamra-labeled oligonucleotides was monitored using a Nanodrop microfluorimeter (Nanodrop Technologies, Wilmington, Del., United States of America). After treatment with oligonucleotides the cells were lysed in a mild non-ionic detergent buffer and the Tamra fluorescence (emission 583 nm) was quantitated based on a linear standard curve of unconjugated Tamra in buffer. Intracellular distribution of Tamra-labeled oligonucleotides was examined using an Olympus Confocal FV300 fluorescent microscope (Olympus America Inc., Center Valley, Pa., United States of America) with 60X-oil immersion objective, as previously described. See Astriab-Fisher et al. (2004) Biochem. Pharmacol., 68, 403-407. Expression levels of αvβ3 were monitored by immunostaining with an anti-human-αvβ3 monoclonal (Chemicon, Temecula, Calif., United States of America) followed by an Alexa 488 rabbit antimouse secondary antibody, with analysis by flow cytometry using a DakoCytomation (Glostrop, Denmark) machine.

αvβ3 = assay: Cell surface αvβ3 level by immunostaining and flow cytometry; type: cell-based, human; settings: 200 nM, 24 h exposure
Protocol: Then, αvβ3 levels were determined by immunostaining with anti-αvβ3 antibody. […] The y axis of each panel indicates the number of cells, while the x axis indicates the log of fluorescence intensity.
as §1

A375SM-Luc705-B cells [2] = assay: Short-term toxicity, viable cell count after 48 h (peptide conjugate); type: cell-based; settings: concentrations up to 1000 nM, 48 h
Protocol: Toxicity Studies: Cells were treated with various concentrations of oligonucleotides or conjugates under the same conditions as used for the luciferase induction experiments. After 48 h in medium plus 1% FBS, cells were trypsinized and viable cells were counted in an electronic particle counter.

A375SM-Luc705-B cells [3] = assay: Confocal microscopy of live cells, albumin conjugates; type: cell-based; settings: 100 nM, 24 h
Protocol: Cellular Uptake and Confocal Microscopy: Cells were seeded onto either 12 well plates at 1×10^5 cells per well for cellular uptake measurements or in 12 well glass-bottom plates at 2×10^4 cells per well for live cell analysis by confocal microscopy. After treatment of cells with Tamra labeled oligonucleotide derivatives for 24 h, the cells were either lysed for measurement of Tamra fluorescence using a Nanodrop microfluorimeter (Nanodrop Technologies, Wilmington, Deleware, United States of America) or washed with DMEM containing 10% FBS and then placed in DMEM without phenol red, supplemented with 1% FBS, for confocal microscopy analysis. Co-localization of Tamra-labeled oligonucleotides with Alexa 488 labeled Transferrin or Dextran (Molecular Probes, Beaverton, Oreg., United States of America) in live cell was also examined by confocal microscopy. An Olympus confocal microscope with a 60× objective lens was used, and the data were processed using Fluoview software (Olympus, Center Valley, Pa., United States of America) as described in Example 1.

5′-GTTATTCTTTAGAATGGTGC-Tamra-3′ [623-Tamra]
stability to micrococcal nuclease (Micrococcal nuclease): gradual degradation | cellular uptake seen by confocal microscopy (A375SM-Luc705-B cells [1]): relatively little uptake was observed; also recorded: Very little fluorescence related to cellular uptake of Tamra was observed | level of surface αvβ3 expression (αvβ3): no effect | short-term toxicity (viable cells) (A375SM-Luc705-B cells [2]): little effect | intracellular Tamra fluorescence (A375SM-Luc705-B cells [3]): less intracellular fluorescene | nuclear accumulation of Tamra fluorescence (A375SM-Luc705-B cells [3]): No Tamra fluorophore appeared to have accumulated in nuclei | nuclear accumulation of Tamra fluorescence (A375SM-Luc705-B cells [3]; listed as 623 Tamra): no evidence of nuclear accumulation
